Patent US20150105252A1, “SUBSTITUTED PYRAZOLES AS HERBICIDES” (E I DU PONT DE NEMOURS AND COMPANY, priority 2013, published 2015)

What was measured:
[1] = test system: crabgrass, large; assay: Test A preemergence; format: in vivo, Digitaria sanguinalis; settings: preemergence
Procedure, shortened: (§1)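 Greenhouse test in loam soil/sand blend; compounds formulated in non-phytotoxic solvent with surfactant, applied as preemergence directed soil spray or postemergence to plants 2–10 cm tall at one- to two-leaf stage. Injury rated visually versus untreated controls after approximately 10 days on a 0 (no effect) to 100 (complete control) scale.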

[2] = test system: morningglory; assay: Test A preemergence; format: in vivo, Ipomoea spp.; settings: preemergence
Procedure, shortened: as §1

[3] = test system: velvetleaf; assay: Test A preemergence; format: in vivo, Abutilon theophrasti; settings: preemergence
Procedure, shortened: as §1

[4] = test system: wheat; assay: Test A preemergence; format: in vivo, Triticum aestivum; settings: preemergence
Procedure, shortened: as §1

[5] = test system: crabgrass, large; assay: Test A postemergence; format: in vivo, Digitaria sanguinalis
Procedure, shortened: as §1

[6] = test system: foxtail, giant; assay: Test A postemergence; format: in vivo, Setaria faberii
Procedure, shortened: as §1

[7] = test system: morningglory; assay: Test A postemergence; format: in vivo, Ipomoea spp.
Procedure, shortened: as §1

[8] = test system: velvetleaf; assay: Test A postemergence; format: in vivo, Abutilon theophrasti
Procedure, shortened: as §1

[9] = test system: sedge, umbrella; assay: Test B flood; format: in vivo, Cyperus difformis; settings: 250 g ai/ha, visual rating on 0 to 100 scale (0 no effect, 100 complete control), 13 to 15 days
Procedure, shortened: (§2)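 Greenhouse assay lasting 13 to 15 days. Treatment was into water flooding pots 3 cm deep, at the 2-leaf stage, with that level sustained afterwards. Scores compare treated with control plants visually, 100 denoting complete control and 0 no effect; a dash marks no test result.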

[10] = test system: barnyardgrass; assay: Test B flood; format: in vivo, Echinochloa crus-galli; settings: 250 g ai/ha, visual rating on 0 to 100 scale (0 no effect, 100 complete control), 13 to 15 days
Procedure, shortened: as §2

[11] = test system: ryegrass, Italian; assay: Test C preemergence; format: in vivo, Lolium multiflorum; settings: for Plant response rating (scale of 0 to 100), Ryegrass, Italian: 250 g ai/ha
Procedure, shortened: (§3)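 In this greenhouse assay, seeded soil (loam plus sand) or emerged seedlings in peat-vermiculite medium were treated with formulated compound. Roughly two weeks later (13–15 days), each species was scored visually relative to controls, from 0 for no effect to 100 for complete control.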

[12] = test system: galium; assay: Test C preemergence; format: in vivo, Galium aparine; settings: for Plant response rating (scale of 0 to 100), Galium: 250 g ai/ha
Excerpt: (§4) Seeds of plant species selected from blackgrass (Alopecurus myosuroides), ryegrass, Italian (Italian ryegrass, Lolium multiflorum), wheat (winter wheat, Triticum aestivum), galium (catchweed bedstraw, Galium aparine), corn (Zea mays), crabgrass, large (large crabgrass, Digitaria sanguinalis), foxtail, giant (giant foxtail, Setaria faberii), johnsongrass (Sorghum halepense), lambsquarters (Chenopodium album), morningglory (Ipomoea coccinea), nutsedge, yellow (yellow nutsedge, Cyperus esculentus), pigweed (redroot pigweed, Amaranthus retroflexus), ragweed (common ragweed, Ambrosia elation), soybean (Glycine max), barnyardgrass (Echinochloa crus-galli), oilseed rape (Brassica napus), waterhemp (common waterhemp, Amaranthus rudis), oat, wild (wild oat, Avena fatua), kochia (Kochia scoparia), Surinam grass (Brachiaria decumbens), foxtail, green (green foxtail, Setaria viridis), goosegrass (Eleusine indica), bromegrass, downy (downy bromegrass, Bromus tectorum), nightshade (eastern black nightshade, Solanum ptycanthum), cocklebur (common cocklebur, Xanthium strumarium), cupgrass, woolly (woolly cupgrass, Eriochloa villosa), bermudagrass (Cynodon dactylon), sunflower, (common oilseed sunflower, Helianthus annuus), Russian thistle (Salsola kali), and velvetleaf (Abutilon theophrasti) were planted into a blend of loam soil and sand and treated preemergence with test chemicals formulated in a non-phytotoxic solvent mixture which included a surfactant.
(§5) At the same time, plants selected from these crop and weed species and also chickweed (common chickweed, Stellaria media), canarygrass (littleseed canarygrass, Phalaris minor), and deadnettle (henbit deadnettle, Lamium amplexicaule), were planted in pots containing Redi-Earth® planting medium (Scotts Company, 14111 Scottslawn Road, Marysville, Ohio 43041) comprising spaghnum peat moss, vermiculite, wetting agent and starter nutrients and treated with postemergence applications of test chemicals formulated in the same manner. Plants ranged in height from 2 to 18 cm (1- to 4-leaf stage) for postemergence treatments. Treated plants and controls were maintained in a greenhouse for 13 to 15 days, after which time all species were compared to controls and visually evaluated. Plant response ratings, summarized in Table C, are based on a scale of 0 to 100 where 0 is no effect and 100 is complete control. A dash (-) response means no test result.

[13] = test system: nutsedge, yellow; assay: Test C preemergence; format: in vivo, Cyperus esculentus; settings: for Plant response rating (scale of 0 to 100), Nutsedge, Yellow: 250 g ai/ha
Excerpt: as §4, §5

[14] = test system: soybean; assay: Test C preemergence; format: in vivo, Glycine max; settings: for Plant response rating (scale of 0 to 100), Soybean: 250 g ai/ha
Excerpt: as §4, §5

[15] = test system: oilseed rape; assay: Test C preemergence; format: in vivo, Brassica napus; settings: for Plant response rating (scale of 0 to 100), Oilseed Rape: 250 g ai/ha
Procedure, shortened: as §3

[16] = 125 g ai/ha, visual injury, 0 to 100 scale, approx. 10 days
[17] = 500 g ai/ha, visual injury after approx. 10 days, 0 to 100 scale (0 no effect, 100 complete control)
[18] = Postemergence, 500 g ai/ha, visual rating after approx. 10 days, 0 to 100 scale (0 no effect, 100 complete control)
[19] = postemergence, 125 g ai/ha, about 10 days, visual rating on 0 to 100 scale (0 no effect, 100 complete control)
[20] = preemergence, 31 g ai/ha, visual rating, scale 0 to 100 (0 no effect, 100 complete control), 13 to 15 days
[21] = preemergence, 62 g ai/ha, 13 to 15 days, scale 0 to 100, 0 = no effect, 100 = complete control
[22] = preemergence, 125 g ai/ha, scale 0 to 100, 0 is no effect, 100 is complete control
[23] = Preemergence, 16 g ai/ha, scale 0 to 100

Row | Structure (SMILES) | Crabgrass, Large plant response rating [1, 16] | Crabgrass, Large plant response rating [1, 17] | Morningglory plant response rating [2, 16] | Morningglory plant response rating [2, 17] | Velvetleaf plant response rating [3, 16] | Velvetleaf plant response rating [3, 17] | Wheat plant response rating [4, 16] | Wheat plant response rating [4, 17] | Crabgrass, Large plant response rating [5, 18] | Crabgrass, Large plant response rating [5, 19] | Foxtail, Giant plant response rating [6, 18] | Foxtail, Giant plant response rating [6, 19] | Morningglory plant response rating [7, 18] | Morningglory plant response rating [7, 19] | Velvetleaf plant response rating [8, 18] | Velvetleaf plant response rating [8, 19] | Plant response rating, Sedge, Umbrella [9] | Plant response rating, Barnyardgrass [10] | Ryegrass, Italian plant response rating [11, 20] | Plant response rating, Ryegrass, Italian [11, 21] | further results
1 | CCc1cc(C(=O)NC2CC2)nn1Cc1ccnc(OC(F)F)c1 [Compound 98] | 100 | 100 | 100 | 100 | 100 | 100 | 30 | 90 | 90 | 90 | 90 | 90 | 90 | 90 | 100 | 70 | 80 | 0 | 30 | 80 | Plant response rating (scale of 0 to 100), Ryegrass, Italian ([11]; Preemergence): 100; Ryegrass, Italian plant response rating [11, 22]: 95; Plant response rating (scale of 0 to 100), Galium ([12]; Preemergence): 100; Galium plant response rating [12, 20]: 100; Plant response rating, Galium [12, 21]: 100; Galium plant response rating [12, 22]: 100; Plant response rating (scale of 0 to 100), Nutsedge, Yellow ([13]; Preemergence): 95; Nutsedge, Yellow plant response rating [13, 20]: 30; Plant response rating, Nutsedge, Yellow [13, 21]: 75; Plant response rating (scale of 0 to 100), Soybean ([14]; Preemergence): 98; Soybean plant response rating [14, 20]: 30; Plant response rating, Soybean [14, 21]: 70; Soybean plant response rating [14, 22]: 98; Plant response rating (scale of 0 to 100), Oilseed Rape ([15]; Preemergence): 100; Oilseed Rape plant response rating [15, 20]: 100; Plant response rating, Oilseed Rape [15, 21]: 100; Oilseed Rape plant response rating [15, 22]: 100
2 | CCc1cc(C(=O)NOC(C)C)nn1Cc1ccnc(C(F)(F)F)c1 [Compound 101] | 100 | 100 | 80 | 100 | 40 | 100 | 70 | 100 | 90 | 80 | 90 | 80 | 100 | 100 | 80 | 50 | 60 | 0 | 30 | 60 | Plant response rating, Ryegrass, Italian [11, 23]: 0; Ryegrass, Italian plant response rating [11, 22]: 100; Plant response rating, Galium [12, 23]: 80; Galium plant response rating [12, 20]: 80; Plant response rating, Galium [12, 21]: 80; Galium plant response rating [12, 22]: 80; Plant response rating, Nutsedge, Yellow [13, 23]: 5; Nutsedge, Yellow plant response rating [13, 20]: 5; Plant response rating, Nutsedge, Yellow [13, 21]: 25; Nutsedge, Yellow plant response rating [13, 22]: 75; Plant response rating, Soybean [14, 23]: 0; Soybean plant response rating [14, 20]: 5; Plant response rating, Soybean [14, 21]: 40; Soybean plant response rating [14, 22]: 50; Plant response rating, Oilseed Rape [15, 23]: 75; Oilseed Rape plant response rating [15, 20]: 90; Plant response rating, Oilseed Rape [15, 21]: 98; Oilseed Rape plant response rating [15, 22]: 100
3 | CCc1cc(C(=O)NC(C)C)nn1Cc1ccnc(C(F)(F)F)c1 [Compound 103] | 100 | 100 | 100 | 100 | 100 | 100 | 40 | 100 | 100 | 90 | 90 | 90 | 100 | 90 | 80 | 70 | 90 | 40 | 75 | 95 | Plant response rating (scale of 0 to 100), Ryegrass, Italian ([11]; Preemergence): 98; Ryegrass, Italian plant response rating [11, 22]: 95; Plant response rating (scale of 0 to 100), Galium ([12]; Preemergence): 100; Galium plant response rating [12, 20]: 100; Plant response rating, Galium [12, 21]: 100; Galium plant response rating [12, 22]: 100; Plant response rating (scale of 0 to 100), Nutsedge, Yellow ([13]; Preemergence): 95; Nutsedge, Yellow plant response rating [13, 20]: 40; Plant response rating, Nutsedge, Yellow [13, 21]: 80; Nutsedge, Yellow plant response rating [13, 22]: 85; Plant response rating (scale of 0 to 100), Soybean ([14]; Preemergence): 100; Soybean plant response rating [14, 20]: 90; Plant response rating, Soybean [14, 21]: 100; Soybean plant response rating [14, 22]: 100; Plant response rating (scale of 0 to 100), Oilseed Rape ([15]; Preemergence): 100; Oilseed Rape plant response rating [15, 20]: 100; Plant response rating, Oilseed Rape [15, 21]: 100; Oilseed Rape plant response rating [15, 22]: 100
4 | CCOc1cc(C(=O)NCC(F)(F)F)nn1Cc1ccnc(C(F)(F)F)c1 [Compound 104] | 100 | 100 | 100 | 100 | 100 | 100 | 90 | 100 | 90 | 90 | 90 | 90 | 100 | 100 | 100 | 90 | 0 | 75 | 80 | 90 | Plant response rating (scale of 0 to 100), Ryegrass, Italian ([11]; Preemergence): 95; Ryegrass, Italian plant response rating [11, 22]: 95; Plant response rating (scale of 0 to 100), Galium ([12]; Preemergence): 100; Galium plant response rating [12, 20]: 90; Plant response rating, Galium [12, 21]: 98; Galium plant response rating [12, 22]: 100; Plant response rating (scale of 0 to 100), Nutsedge, Yellow ([13]; Preemergence): 98; Nutsedge, Yellow plant response rating [13, 20]: 70; Plant response rating, Nutsedge, Yellow [13, 21]: 95; Nutsedge, Yellow plant response rating [13, 22]: 98; Plant response rating (scale of 0 to 100), Soybean ([14]; Preemergence): 98; Soybean plant response rating [14, 20]: 85; Plant response rating, Soybean [14, 21]: 95; Soybean plant response rating [14, 22]: 98; Plant response rating (scale of 0 to 100), Oilseed Rape ([15]; Preemergence): 100; Oilseed Rape plant response rating [15, 20]: 100; Plant response rating, Oilseed Rape [15, 21]: 100; Oilseed Rape plant response rating [15, 22]: 100
